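Compound exposure: 48 hours, 5 concentrations, 96-well plates. TGI: total growth inhibition.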
Key:
Experiment in all cases: NCI tumour cell line growth inhibition, 48 h
DMS 114 small cell lung = system: DMS 114 small cell lung
DMS 273 small cell lung = system: DMS 273 small cell lung
DLD-1 colon = system: DLD-1 colon
SN12K1 renal = system: SN12K1 renal
P388 leukemia = system: P388 leukemia
LXFL 529 NSCLC = system: LXFL 529 NSCLC
P388/ADR leukemia = system: P388/ADR leukemia
RXF-631 renal = system: RXF-631 renal

SMILES | TGI (DMS 114 small cell lung) | TGI (DMS 273 small cell lung) | TGI (DLD-1 colon) | TGI (SN12K1 renal) | TGI (P388 leukemia) | TGI (LXFL 529 NSCLC) | TGI (P388/ADR leukemia) | TGI (RXF-631 renal)
Cc1ccc(S(=O)(=O)N/N=C\c2c3ccccc3[n+](C)c3ccccc23)cc1 | > 100 µM | 64.7 µM | > 100 µM |  |  |  |  | 
Nc1ncc2c(n1)-c1ccccc1OC2 | > 100 µM | > 100 µM | > 100 µM | > 100 µM | > 100 µM |  |  | 
O=S(=O)(O)c1cc(N=[N+]([O-])c2ccc(N=Nc3ccccc3)cc2S(=O)(=O)O)ccc1/C=C/c1ccc(N=[N+]([O-])c2ccc(N=Nc3ccccc3)cc2S(=O)(=O)O)cc1S(=O)(=O)O | > 100 µM | > 100 µM | > 100 µM | > 31.6 µM | > 100 µM |  |  | 
OC(CCl)CN1CC[N+]2(CC1)CC[N+]1(CCN(CC(O)CCl)CC1)CC2 (configuration not stated) | > 50 µM | > 50 µM |  |  |  | > 50 µM |  | 
CC1=C(C(=O)NCc2ccccc2)C(c2ccco2)C(C(=O)NCc2ccccc2)=C(C)N1 | > 100 µM | > 100 µM | > 100 µM |  |  | > 100 µM |  | 
O=[N+]([O-])c1ccc(Nc2cccc3c2[nH]c2c(-c4ccccc4)nccc23)c([N+](=O)[O-])c1 | > 100 µM | > 100 µM | > 100 µM |  | > 69.2 µM |  | > 100 µM | 
Cc1cc(OCC(O)CO)ccc1Cl (configuration not stated) | > 100 µM | > 100 µM | > 100 µM |  |  | > 100 µM |  | > 100 µM
CC(C)(C)CC(C)(C)NCC(O)COc1ccc(C(C)(C)c2ccc(OCC(O)CNC(C)(C)CC(C)(C)C)cc2)cc1 (configuration not stated) | 3.21 µM | 2.28 µM | 2.06 µM |  |  | 1.3 µM |  | 
COc1ccc(C2=NN(c3nsc4ccccc34)C(=O)CC2)cc1 | > 100 µM | > 100 µM |  |  |  | > 100 µM |  | 
